≈ marks a conversion by molar mass, not a printed value. Like-named read-outs stand apart in the source and are kept apart here.
Columns and labels:
Assay in all cases: in vitro antibacterial MIC, agar plate dilution
Format in all cases: cell-based
[1] = tested on: Staphylococcus aureus VGH 84-47; conditions: Staphylococcus aureus, VGH8447, 18 h, 35° C., read-out: MIC
How it was run: (§1)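 MIC, mcg/ml: lowest concentration with no visible growth after 18 h incubation at 35° C. Mueller-Hinton agar dilution plates; ~10^4 CFU inoculum via Steers replicating device.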

[2] = tested on: Streptococcus faecalis CMC 83-120; conditions: Enterococcus faecalis, CMC83120, 18 h, 35° C., read-out: MIC
How it was run: as §1

[3] = tested on: Serratia marcescens K 84-18; conditions: Serratia marcescens, K8418, 18 h, 35° C., read-out: MIC
How it was run: as §1

[4] = tested on: Streptococcus faecalis VGH 84-65; conditions: Enterococcus faecalis, VGH8465, 18 h, 35° C., read-out: MIC
How it was run: as §1

[5] = tested on: Staphylococcus aureus K 82-26; conditions: Staphylococcus aureus, K8226, 18 h, 35° C., read-out: MIC
How it was run: as §1

[6] = tested on: Escherichia coli CMC 84-50; conditions: Escherichia coli, CMC8450, 18 h, 35° C., read-out: MIC
How it was run: as §1

[7] = tested on: Staphylococcus aureus ATTC 29213; conditions: 35° C.
How it was run: as §1

[8] = tested on: Enterobacter cloacae MOR 84-30; conditions: 35° C.
How it was run: as §1

[9] = tested on: Morganella morganii CMC 84-37; conditions: 35° C.
How it was run: as §1

[10] = tested on: Escherichia coli CMC 84-16; conditions: Escherichia coli, CMC8416, 18 h, 35° C., read-out: MIC
How it was run: as §1

[11] = tested on: Enterobacter aerogenes VGH 84-36; conditions: Klebsiella aerogenes, VGH8436, 18 hours, 35° C., read-out: MIC
How it was run: as §1

[12] = tested on: Staphylococcus Spp saprophiticus VGH 84-50; conditions: 18 hours, 35° C., read-out: MIC
How it was run: as §1

[13] = tested on: Morganella morganii VGH 84-11; conditions: VGH8411, 18 hours, 35° C., read-out: MIC
How it was run: as §1

[14] = tested on: Klebsiella oxytoca MOR 84-28; conditions: MOR8428, 18 hours, 35° C.
How it was run: as §1

[15] = tested on: Staphylococcus aureus VGH 84-46; conditions: Staphylococcus aureus, VGH8446, 18 h, 35° C., read-out: MIC
How it was run: as §1

Klebsiella pneumoniae AD = conditions: Klebsiella pneumoniae, 18 h, 35° C., read-out: MIC
How it was run: as §1

[16] = tested on: Staphylococcus aureus CMC 83-128; conditions: CMC83128, 18 hours, 35° C., read-out: MIC
How it was run: as §1

[17] = tested on: Acinetobacter calcoaceticus MOR 84-43; conditions: MOR8443, 18 hours, 35° C., read-out: MIC
How it was run: as §1

[18] = tested on: Escherichia coli PRNT 311; conditions: PRNT311, 18 hours, 35° C., read-out: MIC
How it was run: as §1

[19] = tested on: Staphylococcus epidermidis IO 83-58; conditions: IO8358, 18 hours, 35° C., read-out: MIC
How it was run: as §1

[20] = tested on: Staphylococcus epidermidis VGH 84-40; conditions: VGH8440, 18 hours, 35° C., read-out: MIC
How it was run: as §1

Escherichia coli NAR 311 = conditions: NAR311, 18 hours, 35° C., read-out: MIC
How it was run: as §1

[21] = tested on: Staphylococcus epidermidis CMC 83-135; conditions: CMC83135, 18 hours, 35° C., read-out: MIC
How it was run: as §1

[22] = tested on: Klebsiella pneumoniae MOR 84-4; conditions: Klebsiella pneumoniae, MOR844, 18 h, 35° C., read-out: MIC
How it was run: as §1

[23] = Staphylococcus aureus, ATTC29213, 18 h, read-out: MIC
[24] = Enterobacter cloacae, MOR8430, 18 h, read-out: MIC
[25] = Morganella morganii, CMC8437, 18 h, read-out: MIC

| Compound | MIC [1] | MIC [2] | MIC [3] | MIC [4] | MIC [5] | MIC [6] | MIC ([7]; 18 hours) | MIC [7, 23] | MIC [8, 24] | MIC [9, 25] | also measured |
| --- | --- | --- | --- | --- | --- | --- | --- | --- | --- | --- | --- |
| CCn1cc(C(=O)O)c(=O)c2cc(F)c(N3CCN(C)C(c4ccnn4C)C3)cc21 (stereo not shown) [Example 110, 1-Ethyl-6-fluoro-1,4-dihydro-7-[4-methyl-3-(1-methyl-1H-pyrazol-5-yl) -1-piperazinyl]-4-oxo-3-quinolinecarboxylic acid] | 1 µg/mL (≈ 2.42 µM) | 16 µg/mL (≈ 38.7 µM) | 8 µg/mL (≈ 19.3 µM) | 8 µg/mL (≈ 19.3 µM) | 16 µg/mL (≈ 38.7 µM) | 4 µg/mL (≈ 9.67 µM) | 1 µg/mL (≈ 2.42 µM) | 0.5 µg/mL (≈ 1.21 µM) | > 16 µg/mL |  |  |
| CN1CCN(c2cc3c(cc2F)c(=O)c(C(=O)O)cn3C2CC2)CC1C1CC1 (stereo not shown) [Example 125, 1-Cyclopropyl-7-(3-cyclopropyl-4-methyl-1-piperazinyl) -6-fluoro-1,4-dihydro-4-oxo-3-quinolinecarboxylic acid] | 0.5 µg/mL (≈ 1.3 µM) | 4 µg/mL (≈ 10.4 µM) | 0.5 µg/mL (≈ 1.3 µM) | 4 µg/mL (≈ 10.4 µM) | 4 µg/mL (≈ 10.4 µM) | 0.25 µg/mL (≈ 0.649 µM) | 0.5 µg/mL (≈ 1.3 µM) | 0.25 µg/mL (≈ 0.649 µM) | 2 µg/mL (≈ 5.19 µM) | 0.25 µg/mL (≈ 0.649 µM) |  |
| CN1CCN(c2c(F)c(F)c3c(=O)c(C(=O)O)cn(C4CC4)c3c2F)CC1 [Example 111, 1Cyclopropyl-5,6,8-trifluoro-1,4-dihydro-7-(4-methyl-1-piperazinyl) -4-oxo-3-quinolinecarboxylic acid] | 0.12 µg/mL (≈ 0.315 µM) | 2 µg/mL (≈ 5.24 µM) | 0.12 µg/mL (≈ 0.315 µM) | 4 µg/mL (≈ 10.5 µM) | 1 µg/mL (≈ 2.62 µM) | 0.004 µg/mL (≈ 0.0105 µM) |  | 0.25 µg/mL (≈ 0.656 µM) | 0.06 µg/mL (≈ 0.157 µM) | 0.03 µg/mL (≈ 0.0787 µM) |  |
| CCn1cc(C(=O)O)c(=O)c2cc(F)c(N3CCNC(c4ccncc4)C3)cc21 (stereo not shown) [Example 123] | 2 µg/mL (≈ 5.05 µM) | > 16 µg/mL | 8 µg/mL (≈ 20.2 µM) | 8 µg/mL (≈ 20.2 µM) | 16 µg/mL (≈ 40.4 µM) | 4 µg/mL (≈ 10.1 µM) | 1 µg/mL (≈ 2.52 µM) | 0.5 µg/mL (≈ 1.26 µM) | > 16 µg/mL |  |  |
| CCn1cc(C(=O)O)c(=O)c2cc(F)c(N3CCNC(c4ccoc4)C3)cc21 (stereo not shown) [Example 94, 1-Ethyl-6-fluoro-1,4-dihydro-4-oxo-7-[3-(3-furanyl)-1-piperazinyl]-3-quinolinecarboxylic acid] | 0.25 µg/mL (≈ 0.649 µM) | 4 µg/mL (≈ 10.4 µM) | 0.5 µg/mL (≈ 1.3 µM) | 2 µg/mL (≈ 5.19 µM) | 0.25 µg/mL (≈ 0.649 µM) | 0.25 µg/mL (≈ 0.649 µM) |  |  | 4 µg/mL (≈ 10.4 µM) | 0.12 µg/mL (≈ 0.311 µM) |  |
| O=C(O)c1cn(C2CC2)c2cc(N3CCNC(c4cc[nH]n4)C3)c(F)cc2c1=O (stereo not shown) [Example 121, 1-Cyclopropyl-6-fluoro-1,4-dihydro-4-oxo-7-[3-(1H-pyrazol-3-yl)-1-piperazinyl]-3-quinolinecarboxylic acid] | 1 µg/mL (≈ 2.52 µM) | 5 µg/mL (≈ 12.6 µM) | 0.25 µg/mL (≈ 0.629 µM) | 2 µg/mL (≈ 5.03 µM) | 1 µg/mL (≈ 2.52 µM) | 0.25 µg/mL (≈ 0.629 µM) | 2 µg/mL (≈ 5.03 µM) | 1 µg/mL (≈ 2.52 µM) | 4 µg/mL (≈ 10.1 µM) | 1 µg/mL (≈ 2.52 µM) |  |
| CCn1cc(C(=O)O)c(=O)c2cc(F)c(N3CCNC(c4cccnc4)C3)cc21 (stereo not shown) [Example 122] | 1 µg/mL (≈ 2.52 µM) | 8 µg/mL (≈ 20.2 µM) | 1 µg/mL (≈ 2.52 µM) | 8 µg/mL (≈ 20.2 µM) | 1 µg/mL (≈ 2.52 µM) | 2 µg/mL (≈ 5.05 µM) | 1 µg/mL (≈ 2.52 µM) | 0.5 µg/mL (≈ 1.26 µM) | 16 µg/mL (≈ 40.4 µM) | 0.25 µg/mL (≈ 0.631 µM) |  |
| O=C(O)c1cn(C2CC2)c2cc(N3CCNC(c4ccco4)C3)c(F)cc2c1=O (stereo not shown) [Example 62, 1-Cyclopropyl-6-fluoro-7-[3-(2-furanvl)-1-piperazinyl]-1,4-dihydro-4-oxo-3-quinolinecarboxylic acid] | 0.03 µg/mL (≈ 0.0755 µM) | 1 µg/mL (≈ 2.52 µM) | 0.25 µg/mL (≈ 0.629 µM) |  | 0.06 µg/mL (≈ 0.151 µM) | 0.12 µg/mL (≈ 0.302 µM) |  |  |  |  | MIC [10]: 0.03 µg/mL (≈ 0.0755 µM); MIC [11]: 0.12 µg/mL (≈ 0.302 µM); MIC [12]: 0.12 µg/mL (≈ 0.302 µM); MIC [13]: 0.06 µg/mL (≈ 0.151 µM); MIC ([9]; 18 hours): 0.06 µg/mL (≈ 0.151 µM); MIC [14]: 0.06 µg/mL (≈ 0.151 µM); MIC [15]: 0.015 µg/mL (≈ 0.0377 µM); MIC (Klebsiella pneumoniae AD): 0.12 µg/mL (≈ 0.302 µM); MIC [16]: 0.03 µg/mL (≈ 0.0755 µM); MIC [17]: 0.06 µg/mL (≈ 0.151 µM); MIC [18]: 0.06 µg/mL (≈ 0.151 µM); MIC [19]: 0.015 µg/mL (≈ 0.0377 µM); MIC [20]: 0.03 µg/mL (≈ 0.0755 µM); MIC (Escherichia coli NAR 311): 0.5 µg/mL (≈ 1.26 µM); MIC [21]: 0.03 µg/mL (≈ 0.0755 µM); MIC ([8]; 18 hours): 1 µg/mL (≈ 2.52 µM); MIC [22]: 0.12 µg/mL (≈ 0.302 µM) |
| CCn1cc(C(=O)O)c(=O)c2cc(F)c(N3CCN(C)C(c4ccn(C)n4)C3)cc21 (stereo not shown) [Example 109, 1-Ethyl-6-fluoro-1,4-dihydro-7-[4-methyl-3-(1-methyl-1H-pyrazol-3-yl) -1-piperazinyl]-4-oxo-3-quinolinecarboxylic acid] | 2 µg/mL (≈ 4.84 µM) | > 16 µg/mL | 32 µg/mL (≈ 77.4 µM) | 16 µg/mL (≈ 38.7 µM) | > 16 µg/mL | > 16 µg/mL | 1 µg/mL (≈ 2.42 µM) | 0.5 µg/mL (≈ 1.21 µM) | > 16 µg/mL |  |  |
| O=C(O)c1cn(C2CC2)c2cc(N3CCNC(c4ccoc4)C3)c(F)cc2c1=O (stereo not shown) [Example 92] | 0.12 µg/mL (≈ 0.302 µM) | 1 µg/mL (≈ 2.52 µM) | 0.25 µg/mL (≈ 0.629 µM) | 0.5 µg/mL (≈ 1.26 µM) | 0.12 µg/mL (≈ 0.302 µM) | 0.12 µg/mL (≈ 0.302 µM) | 0.12 µg/mL (≈ 0.302 µM) | 0.06 µg/mL (≈ 0.151 µM) | 1 µg/mL (≈ 2.52 µM) | 0.06 µg/mL (≈ 0.151 µM) |  |
